Assay results as given in patent publication US9593062B2, “Means and methods for treating and/or preventing natural AHR ligand-dependent cancer” (priority 2011, dated 2017).
Where two headings read alike, the source gives them in different places.

What was measured:
[1] = molecular target: T1, AHR (Homo sapiens, UniProt P35869)
T1 sequence (P35869 11-848): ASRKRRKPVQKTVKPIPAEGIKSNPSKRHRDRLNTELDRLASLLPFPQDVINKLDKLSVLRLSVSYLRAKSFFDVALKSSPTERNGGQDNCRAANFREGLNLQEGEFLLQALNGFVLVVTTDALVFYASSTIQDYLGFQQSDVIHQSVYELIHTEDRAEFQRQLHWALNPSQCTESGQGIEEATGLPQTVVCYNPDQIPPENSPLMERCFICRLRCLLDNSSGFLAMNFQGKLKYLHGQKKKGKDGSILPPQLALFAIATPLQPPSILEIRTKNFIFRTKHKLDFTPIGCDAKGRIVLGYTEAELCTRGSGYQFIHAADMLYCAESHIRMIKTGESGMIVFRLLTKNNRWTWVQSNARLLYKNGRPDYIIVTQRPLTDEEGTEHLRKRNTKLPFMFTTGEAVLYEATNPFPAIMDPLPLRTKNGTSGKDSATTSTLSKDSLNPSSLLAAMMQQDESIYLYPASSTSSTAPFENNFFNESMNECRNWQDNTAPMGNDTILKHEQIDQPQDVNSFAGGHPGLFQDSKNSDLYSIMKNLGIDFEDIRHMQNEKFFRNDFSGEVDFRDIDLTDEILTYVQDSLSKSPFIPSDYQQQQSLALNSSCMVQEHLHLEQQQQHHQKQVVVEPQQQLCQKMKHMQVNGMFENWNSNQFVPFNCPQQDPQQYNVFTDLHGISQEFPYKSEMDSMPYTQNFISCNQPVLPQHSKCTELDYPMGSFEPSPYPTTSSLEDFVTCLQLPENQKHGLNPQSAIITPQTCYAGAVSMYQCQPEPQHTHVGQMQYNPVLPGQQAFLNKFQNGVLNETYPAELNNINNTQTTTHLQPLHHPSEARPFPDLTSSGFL
Method: Dual luciferase/renilla assays were performed as detailed in the Supplementary Methods. For analysis of DRE-driven reporter gene activity in response to various Trp metabolites, the pGL3-promotor expression plasmid and the control plasmid pRL-SV40, expressing renilla luciferase were used (Promega, Heidelberg, Germany).

[2] = tested on: T cells; assay: T cell proliferation (mixed leukocyte reaction, TCR-stimulated T cells); assay type: cell-based, human
Method: Glioma cells were seeded in 96-well plates in RPMI 1640 containing 10% FBS, 100 U/ml penicillin and 100 μg/ml streptomycin. 24 h after seeding […] irradiated (30 Gy) PBMC as stimulators and 2×10^5 PBMC from unrelated donors as responders were added. Six-day MLR were performed and cultures were pulsed with [3H]-methylthymidine (PerkinElmer, Waltham, Mass., USA) for the last 18 h. Cells were harvested, and radionuclide uptake was measured by scintillation counting. Experiments were repeated with six unrelated PBMC donors.

[3] = tested on: glioma cells; assay: Motility, clonogenic survival and sphere formation of glioma cells; assay type: cell-based, human
Method: Tumor weight was calculated using the equation: tumor weight (g)=(length (cm)×width (cm)2)×0.5. e, IFN-γ-release of T cells of mice bearing subcutaneous Tdo-expressing tumors (black bar) in comparison to T cells of mice bearing Tdo-deficient tumors (white bar) after restimulation with glioma lysates measured by ELISpot (n=3). f, Lysis of GL261 murine glioma cells by spleen cells of mice with Tdo-expressing GL261 tumors in comparison to those with a subcutaneous Tdo-deficient GL261 tumors measured by chromium release (n=4). g, Quantification of the migrated distances of sh-c (open squares) and sh-TDO (solid circles) cells into a collagen matrix (n=3, P=0.004, 0.0005 and 0.01 for 24, 48 and 72 h, respectively). h, Clonogenic survival of sh-c (white bar) and sh-TDO (black bar) U87 cells (n=3). i, Matrigel boyden chamber assay of U87 glioma cells in the absence or presence of 70 μM Trp without or with 30 μM or 60 μM Kyn (n=3). j, Clonogenic survival of LN-18 glioma cells in the absence or presence of 70 μM Trp without or with 30 μM or 60 μM Kyn (n=3). k, Representative cranial MRIs, H&E and nestin stainings of CD1 nu/nu mice implanted with sh-c (upper panel) or sh-TDO (lower panel) U87 glioma cells. […]

[4] = tested on: AHR response genes; assay: Microarray analysis of Kyn-treated U87 glioma cells; assay type: cell-based, human; conditions: U87, 100 μM Kyn, 8 h and 24 h
Method: U87 glioma cells were treated with 100 μM Kyn for 8 h or 24 h, after which the cells were harvested and RNA isolated using the RNAeasy-Kit (Qiagen). The RNA was subjected to microarray analyses as detailed in the Supplementary Methods. For each of the four treatments (8 h, 24 h, Kyn-treated, untreated) two arrays were hybridised and the mean log 2 ratios of gene expression in Kyn-treated vs. untreated samples were calculated. Further analyses of the data are detailed in the Supplementary Methods. For clinical samples microarray and clinical data were acquired from the REpository for Molecular BRAin Neoplasia DaTa (REMBRANDT) (Supplementary Methods). Survival analysis within the data set of untreated primary glioblastoma (n=362) of The Cancer Genome Atlas (TCGA) network was performed using the Kaplan-Meier-analysis module of the R2 microarray analysis and visualisation platform (http://r2.amc.nl).

[5] = molecular target: T2, AHR (Mus musculus, UniProt P30561)
T2 sequence (P30561 1-848): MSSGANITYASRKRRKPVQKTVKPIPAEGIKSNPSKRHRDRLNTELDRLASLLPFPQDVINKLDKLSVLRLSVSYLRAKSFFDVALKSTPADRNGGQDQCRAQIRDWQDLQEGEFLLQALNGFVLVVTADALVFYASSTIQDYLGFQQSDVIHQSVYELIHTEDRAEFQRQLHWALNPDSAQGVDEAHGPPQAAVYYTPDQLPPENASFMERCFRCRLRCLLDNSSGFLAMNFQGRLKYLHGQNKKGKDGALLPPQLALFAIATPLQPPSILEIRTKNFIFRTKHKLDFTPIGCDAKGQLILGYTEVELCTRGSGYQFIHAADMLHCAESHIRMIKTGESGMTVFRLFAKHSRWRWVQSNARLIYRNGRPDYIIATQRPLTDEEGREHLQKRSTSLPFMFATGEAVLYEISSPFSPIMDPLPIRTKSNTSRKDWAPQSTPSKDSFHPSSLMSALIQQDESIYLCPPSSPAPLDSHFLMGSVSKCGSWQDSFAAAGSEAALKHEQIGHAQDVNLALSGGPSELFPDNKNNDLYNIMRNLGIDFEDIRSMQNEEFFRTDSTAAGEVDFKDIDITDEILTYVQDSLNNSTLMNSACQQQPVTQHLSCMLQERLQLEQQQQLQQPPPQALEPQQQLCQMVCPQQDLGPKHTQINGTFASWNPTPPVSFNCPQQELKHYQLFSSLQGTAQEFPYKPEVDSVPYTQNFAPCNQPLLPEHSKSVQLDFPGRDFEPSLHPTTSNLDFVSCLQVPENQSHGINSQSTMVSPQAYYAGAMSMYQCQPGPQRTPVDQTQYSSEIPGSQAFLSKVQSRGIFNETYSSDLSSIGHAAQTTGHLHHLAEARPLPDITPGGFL
Description: The data distribution is represented by box plots, showing the 25th and 75th percentile together with the median, whiskers represent the 10th and 90th percentile, respectively (P<0.001, one way ANOVA on ranks, followed by Dunns' method). d, AHR Western blots of two different nuclear and cytoplasmic fractions each of control (1,2), Kyn-treated (3,4) and TCDD-treated (5,6) human LN-229 glioma cells. e, Dioxinresponsive element (DRE) chemical activated luciferase gene expression in U87 glioma cells treated with indicated Kyn concentrations (n=2). f, Radioligand binding assay with indicated concentrations of L-3H-Kyn using mouse liver cytosol from Ahr-proficient and Ahr-deficient mice.
L-3H-Kyn with a specific activity of 11 Ci/mmol was obtained from Quotient Bioresearch (Radiochemicals) Ltd. (Cardiff, UK). The binding assays with L-3H-Kyn using mouse liver cytosol from Ahr-proficient and Ahr-deficient mice were performed. Specific binding was defined as the difference of radioactivity between Ahr-proficient and Ahr-deficient cytosol.

[6] = molecular target: T3, AHR (Mus musculus, UniProt P30561); assay: AHR nuclear translocation (GFP-tagged AHR, mouse hepatoma cells); assay type: cell-based; conditions: after 1 h; 50 μM Kyn
T3 construct: expressed in transfected cells; host or cells: Tao BpRc1c mouse hepatoma cells
T3 sequence (P30561 10-848): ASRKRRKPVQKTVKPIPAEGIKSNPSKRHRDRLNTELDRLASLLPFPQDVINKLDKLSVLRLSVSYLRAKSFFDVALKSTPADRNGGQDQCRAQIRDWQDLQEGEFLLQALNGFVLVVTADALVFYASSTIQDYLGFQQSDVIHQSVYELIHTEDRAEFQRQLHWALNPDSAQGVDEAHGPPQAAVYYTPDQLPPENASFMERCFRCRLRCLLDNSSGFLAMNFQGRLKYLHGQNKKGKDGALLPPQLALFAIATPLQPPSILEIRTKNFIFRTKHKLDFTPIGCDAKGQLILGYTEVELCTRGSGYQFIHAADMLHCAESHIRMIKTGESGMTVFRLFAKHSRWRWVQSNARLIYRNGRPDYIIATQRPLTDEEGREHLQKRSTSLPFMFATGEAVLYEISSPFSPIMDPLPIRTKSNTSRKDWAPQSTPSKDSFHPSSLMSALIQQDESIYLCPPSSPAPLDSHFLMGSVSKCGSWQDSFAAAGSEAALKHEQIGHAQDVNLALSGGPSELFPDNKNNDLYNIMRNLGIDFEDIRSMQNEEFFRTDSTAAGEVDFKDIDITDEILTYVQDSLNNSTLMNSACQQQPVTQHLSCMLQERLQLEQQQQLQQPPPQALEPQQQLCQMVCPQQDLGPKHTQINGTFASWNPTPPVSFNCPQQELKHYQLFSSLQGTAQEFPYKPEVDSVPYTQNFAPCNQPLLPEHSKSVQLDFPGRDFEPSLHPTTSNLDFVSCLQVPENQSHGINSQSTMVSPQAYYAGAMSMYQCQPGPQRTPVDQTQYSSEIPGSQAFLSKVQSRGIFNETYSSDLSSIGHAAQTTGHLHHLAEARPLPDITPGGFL
Method: For detection of AHR translocation 7000 Tao BpRc1c cells with a GFP-tagged AHR per well were exposed to 50 μM Kyn or 50 μM Trp, fixed in 3.7% formaldehyde in PBS, permeabilised in 0.1% Triton X100, incubated with 1 μg/ml Hoechst 33342 (Invitrogen) and imaged on a BD Pathway™ Imager 855 in a non-confocal mode using a 20× U-Apo 340 objective (Olympus, NA 0.75). Further analysis of fluorescence intensity was performed using the Attovision software (BD Biosciences). In addition, the AHR protein content in the nuclear and the cytoplasmic fractions of LN-229 glioma cells was compared by immunoblotting.

[7] = molecular target: T1, AHR; assay: ethoxyresorufin-O-deethylase (EROD) assay, induction of AHR target gene CYP1A1; assay type: cell-based
Description: Such an inhibition may occur if the compound binds to an interaction domain of the AHR or its ligand binding domain and thereby inhibits the biological function of the AHR as specified elsewhere herein. Preferably, the inhibitor blocks the ligand binding domain for kynurenin, i.e. interacts with the ligand binding domain of the PAS-B domain or the ligand binding domain formed by Tyr310, Phe324, His326 and Arg352 (amino acid positions corresponding to human AHR). Alternatively, the compound may elicit an allosteric effect on the AHR polypeptide resulting in an inhibition of the biological function as well. An indirect inhibition can be elicited by a compound which reduces or prevents the transcription and/or translation of AHR polypetides and, thus, the amount of available AHR polypeptides in a cell. The AHR inhibitor shall at least reduce the AHR activity to a statistically significant extent. Of course, preferably, the inhibitor will reduce the AHR activity below the detectable limits. […] The activity of AHR can be detected by determining induction of the gene expression of its endogenous target gene CYP1A1 by an ethoxyresorufin-O-deethylase (EROD) assay.

[8] = molecular target: T1, AHR; assay: Inhibition of ligand-induced AHR activation and AHR-regulated gene expression by an AHR antagonist; assay type: cell-based; design: Malignant glioma cell lines as well as GIC express the AHR constitutively; endogenous in cells
Method: TDO expression was analysed by immunohistochemistry in human tumors. Its relevance for Trp degradation was determined using genetic knockdown or overexpression of TDO. Trp and Kyn were measured in cell culture supernatants, human sera and xenograft tissue by HPLC. Mixed leukocyte reactions, chromium release, ELISpot and staining of immune cells in tumor tissues were used to assess the immune effects of TDO activity. Cell cycle analysis, matrigel and spheroid invasion assays, scratch assays, sphere formation assays and clonogenicity assays were employed to analyse the autocrine effects of TDO activity. All animal procedures followed the institutional laboratory animal research guidelines and were approved by the governmental authorities. Orthotopic implantation of human glioma cells with and without stable knockdown of TDO into CD1nu/nu mice, s.c. injection of these cells into NK-depleted or wildtype CD1nu/nu mice and s.c. injection of murine Tdo-proficient and Tdo-deficient GL261 cells into syngeneic C57BL/6N mice were performed to analyse the autocrine and paracrine effects of TDO activity in vivo. Microarray analysis of Kyn-treated human glioma cells was performed to identify signalling pathways activated by Kyn. Analysis of AHR translocation, DRE-luciferase assays and radioligand binding assays confirmed activation of the AHR by Kyn. […]

EC50 [1] [µM]	Kd [5] [µM]	EC50 [7] [µM]	Activation of the AHR and upregulation of AHR-regulated gene expression in response to Kyn ([8]; agonist Kyn)	Compound	Proliferation of T cell receptor-stimulated CD4+ and CD8+ T cells [2]	Allogeneic T cell proliferation with TDO knockdown glioma cells ([2]; 100 μM Kyn added to sh-TDO U87 cells (FIG. 2b))	Motility and clonogenic survival of glioma cells ([3]; absence of Trp, 30 or 60 μM Kyn (FIG. 2i,j))	Sphere formation of GIC ([3]; glioma-initiating cells)	Induction of AHR response genes [4]	Translocation of the AHR into the nucleus [6]	Activation of the AHR by Kyn, TCDD and 3-MC ([8]; three ligands: Kyn, TCDD, 3-methylcholanthrene)
36.6	~4	12.3	–	Kynurenin	concentration-dependently inhibited	prevented the restoration of T cell proliferation	restored motility and clonogenic survival	enhanced	broad induction of AHR response genes	led to translocation of the AHR into the nucleus	–
–	–	–	inhibited	COc1ccc(-c2cc(=O)c3ccccc3o2)cc1OC [3,4-DMF, 3,4-dimethoxylflavone]	–	–	–	–	–	–	inhibited the activation of the AHR by all three ligands
